IC50, Increase and Decay-time constant data for 2 compounds are collected here from ChEMBL document CHEMBL1147513, “Sensitivity of neuronal nicotinic acetylcholine receptors to the opiate antagonists naltrexone and naloxone: receptor blockade and up-regulation” (Bioorg Med Chem Lett, 2004).

Experiment [1] addresses T1, Neuronal acetylcholine receptor subunit alpha-4 (Rattus norvegicus, UniProt P09483). Kind of experiment: Blockage of Nicotinic acetylcholine receptor alpha4-beta2 noncompetitively in cultured hippocampal neurons. The format is tissue-based, Hippocampus.
Experiment [2] can be described thus: Increase in the charge carried by choline- induced currents in […] organotypic hippocampal cultures by naltrexone (0.3 uM). The format is functional, Hippocampus.
Experiment [3] can be described thus: Increase in the charge carried by ACh- induced currents in […] organotypic hippocampal cultures by naltrexone (0.3 uM). Format: functional, Hippocampus.
In experiment [4] the target is T2, Neuronal acetylcholine receptor subunit alpha-7 (Homo sapiens, UniProt P36544). In words: Blockage of Nicotinic acetylcholine receptor alpha-7 noncompetitively in hippocampal primary cultures. Format: tissue-based, Hippocampus.
T2 sequence (P36544 whole entry): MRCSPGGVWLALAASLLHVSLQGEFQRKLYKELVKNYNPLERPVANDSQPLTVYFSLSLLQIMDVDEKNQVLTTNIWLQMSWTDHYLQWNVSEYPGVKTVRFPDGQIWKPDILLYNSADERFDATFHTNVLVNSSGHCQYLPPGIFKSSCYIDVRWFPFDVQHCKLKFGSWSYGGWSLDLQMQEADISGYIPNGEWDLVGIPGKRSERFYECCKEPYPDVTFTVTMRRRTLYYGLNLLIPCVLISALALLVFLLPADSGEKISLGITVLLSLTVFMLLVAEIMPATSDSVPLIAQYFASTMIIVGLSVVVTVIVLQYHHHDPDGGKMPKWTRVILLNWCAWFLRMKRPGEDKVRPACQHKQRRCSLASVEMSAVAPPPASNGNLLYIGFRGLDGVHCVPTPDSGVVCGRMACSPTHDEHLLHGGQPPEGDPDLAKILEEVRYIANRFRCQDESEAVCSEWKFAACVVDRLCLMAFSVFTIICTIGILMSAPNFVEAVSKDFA
The nature of experiment [5]: Increase in the charge carried by ACh- induced currents in CA1 pyramidal neurons of […] cultures by naltrexone (0.3 uM). The format is functional, Pyramidal neuron.
The target in experiment [6] is T1, Neuronal acetylcholine receptor subunit alpha-4. Kind of experiment: Blockage of Nicotinic acetylcholine receptor alpha4-beta2 noncompetitively in acute hippocampal slices. Format: tissue-based, Hippocampus.
Experiment [7] shares this target. Kind of experiment: Blockage of Nicotinic acetylcholine receptor alpha4-beta2 noncompetitively in CA1 stratum radiatum interneurons.
Experiment [8] in a line: Increase in the charge carried by choline- induced currents in CA1 pyramidal neurons of […] cultures by naltrexone (0.3 uM). The format is functional, Pyramidal neuron.
The target in experiment [9] is T2, Neuronal acetylcholine receptor subunit alpha-7. Kind of experiment: Blockage of Nicotinic acetylcholine receptor alpha-7 noncompetitively in cultured hippocampal neurons. The format is tissue-based, Hippocampus.
Experiment [10] has as its system HEK293. In words: Decay-time constant of ACh ([…])-evoked currents in the presence of 0.1 uM naltrexone in HEK293 cells. The format is functional, Homo sapiens.
Experiment [11] deals with HEK293. In words: Decay-time constant of ACh ([…])-evoked currents in the presence of 3 uM naltrexone in HEK293 cells. The format is functional, Homo sapiens.
Experiment [12] has as its system HEK293. Kind of experiment: Decay-time constant of ACh ([…])-evoked currents in the presence of 0.3 uM naltrexone in HEK293 cells. The format is functional, Homo sapiens.
The subject of experiment [13] is HEK293. In words: Decay-time constant of ACh (100 uM) -evoked currents in the absence of naltrexone in HEK293 cells. Format: functional, Homo sapiens.
The test system of experiment [14] is HEK293. Kind of experiment: Decay-time constant of ACh ([…])-evoked currents in the presence of 300 uM naltrexone in HEK293 cells. The format is functional, Homo sapiens.
Experiment [15] deals with HEK293. Kind of experiment: Decay-time constant of ACh ([…])-evoked currents in the presence of 100 uM naltrexone in HEK293 cells. The format is functional, Homo sapiens.
For experiment [16], the system named is HEK293. In words: Decay-time constant of ACh ([…])-evoked currents in the presence of 1 uM naltrexone in HEK293 cells. Format: functional, Homo sapiens.
For experiment [17], the system named is HEK293. In words: Decay-time constant of ACh ([…])-evoked currents in the presence of 30 uM naltrexone in HEK293 cells. Format: functional, Homo sapiens.
For experiment [18], the system named is HEK293. Kind of experiment: Decay-time constant of ACh ([…])-evoked currents in the presence of 10 uM naltrexone in HEK293 cells. The format is functional, Homo sapiens.

T1 sequence (P09483 whole entry): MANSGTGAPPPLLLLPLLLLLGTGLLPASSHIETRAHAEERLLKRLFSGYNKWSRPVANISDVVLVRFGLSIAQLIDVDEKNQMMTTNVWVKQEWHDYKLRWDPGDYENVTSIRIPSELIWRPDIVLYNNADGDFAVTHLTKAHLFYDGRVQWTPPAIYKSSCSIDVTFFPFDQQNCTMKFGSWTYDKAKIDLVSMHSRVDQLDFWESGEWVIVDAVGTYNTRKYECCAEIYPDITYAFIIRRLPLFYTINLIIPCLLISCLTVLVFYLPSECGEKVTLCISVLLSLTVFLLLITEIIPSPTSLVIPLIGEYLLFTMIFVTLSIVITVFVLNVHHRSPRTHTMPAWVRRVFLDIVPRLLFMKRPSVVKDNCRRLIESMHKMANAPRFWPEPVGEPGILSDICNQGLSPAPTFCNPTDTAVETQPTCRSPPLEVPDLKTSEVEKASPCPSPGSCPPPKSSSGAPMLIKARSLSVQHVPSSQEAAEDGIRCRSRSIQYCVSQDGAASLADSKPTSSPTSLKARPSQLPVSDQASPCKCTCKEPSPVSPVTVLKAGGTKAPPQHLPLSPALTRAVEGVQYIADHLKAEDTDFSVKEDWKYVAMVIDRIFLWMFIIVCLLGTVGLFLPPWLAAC

On to `O=C1CC[C@@]2(O)[C@H]3Cc4ccc(O)c5c4[C@@]2(CCN3CC2CC2)[C@H]1O5` [NALTREXONE], for which the IC50 in experiment [1] is 139 µM; in experiment [4] it was 25 µM; in experiment [6] it was 31 µM; in experiment [7] it was 141 µM; in [9], 30 µM. The Increase came to 283% in experiment [2], 214% in experiment [3], 169% in experiment [5] and 210% in experiment [8].
With `CC(=O)OCC[N+](C)(C)C` [ACETYLCHOLINE], the Decay-time constant is given as 509.96 ms in the experiment on HEK293 [10]; 508.74 ms in the experiment with HEK293 [11]; 495.98 ms in the experiment with HEK293 [12]; 547.88 ms with HEK293 [13]; 202.53 ms in the experiment with HEK293 [14]; 257.74 ms in the experiment on HEK293 [15]. The Decay-time constant with HEK293 [16] is reported as 543.11 ms; with HEK293 [17], 422.02 ms; with HEK293 [18] it was 467.84 ms.

Broadly, the IC50 is the point on the concentration scale where inhibition reaches its midpoint. Low values mean greater potency, high ones weaker potency.
